Results as given in patent US11926611B1, “2-(2-ethoxyethoxy)-6-phenyl-4,4′-bipyridine-3-carbonitrile as an antimicrobial compound” (KING FAISAL UNIVERSITY, priority 2023, dated 2024).

Key:
Candida albicans = assay: Antimicrobial screening by agar dilution, Candida albicans; type: cell-based; details: after 10, 20, 40 and 60 minutes at all dilutions 1:100, 1:200, 1:400, 1:800
Method: (§1) The antibacterial properties of the synthesized compound 2-(2-ethoxyethoxy)-6-phenyl-4,4′-bipyridine-3-carbonitrile were studied by the method of agar dilution. Test solutions of each compound was prepared in concentration of 1% using dimethylformamide as a solvent then they are diluted in physiological solution to obtain the final experimental dilutions 1:100, 1:200, 1:400, 1:800. The effect of these substances are compared with furacillin in a controllable study. The testing microbes used were gram positive bacteria Staphylococcus aureus, gram negative bacteria Pseudomonas aeruginosa and Escherichia coli and Candida albicans fungus. The experiments used for this survey were meat-pentonlu agar (EPA) for cultivation of bacteria and Saburo environment for the fungus. Each experiment used 1 mL of test solution on each plate […]. Two drops of emulsified with microbes feel were added. All experimental samples were taken from the agar after 10, 20, 40, 60 minutes in the environment on the basis of Patrk planted. The bacteria were cultivated at a temperature of 37° C. for 1 day and the mushroom was kept in a thermostat for […] at a temperature of 28° C. Then results were checked.

Escherichia coli = assay: Antimicrobial screening by agar dilution, Escherichia coli; type: cell-based; details: after 10, 20, 40 and 60 minutes at all dilutions 1:100, 1:200, 1:400, 1:800
Method: as §1

Staphylococcus aureus = assay: Antimicrobial screening by agar dilution, Staphylococcus aureus; type: cell-based; details: after 10, 20, 40 and 60 minutes at all dilutions 1:100, 1:200, 1:400, 1:800
Method: as §1

Pseudomonas aeruginosa = assay: Antimicrobial screening by agar dilution, Pseudomonas aeruginosa; type: cell-based; details: after 10, 20, 40 and 60 minutes at all dilutions 1:100, 1:200, 1:400, 1:800
Method: as §1

CCOCCOc1nc(-c2ccccc2)cc(-c2ccncc2)c1C#N [2-(2-ethoxyethoxy)-6-phenyl-4,4′-bipyridine-3-carbonitrile]
inhibition activity (in words) (Candida albicans): highest inhibition activity | inhibition activity (in words) (Escherichia coli): highest inhibition activity | melting point: 241 to 243 °C | inhibition activity (in words) (Staphylococcus aureus): highest inhibition activity | inhibition activity (in words) (Pseudomonas aeruginosa): highest inhibition activity
